What follows are molecules tested on Balb/c splenic B cells (assay: B cell activation and proliferation assay (Alamar Blue)). Details: Mus musculus, read-out: B cell proliferation EC50.
Type: cell-based
Procedure: The assay is performed in a 96 well microtiter plate using Alamar Blue reduction. Balb/c splenic B cells are purified over a Ficoll-Paque™ PLUS gradient followed by magnetic cell separation using a MACS B cell Isolation Kit (Miletenyi). Cells are plated in 90 ul at 50,000 cells/well in B Cell Media (RPMI+10% FBS+Penn/Strep+50 uM bME+5 mM HEPES). A compound disclosed herein is diluted in B Cell Media and added in a 10 ul volume. Plates are incubated for 30 min at 37 C and 5% CO2 (0.2% DMSO final concentration). A 50 ul B cell stimulation cocktail is then added containing either 10 ug/ml LPS or 5 ug/ml F(ab′)2 Donkey anti-mouse IgM plus 2 ng/ml recombinant mouse IL4 in B Cell Media. […] A volume of 15 uL of Alamar Blue reagent is added to each well and plates are incubated for 5 hours at 37 C and 5% CO2. Alamar Blue fluoresce is read at 560Ex/590Em, and IC50 or EC50 values are calculated using GraphPad Prism 5.
`Cc1cccc2cc(Cn3cnc4c(N)ncnc43)n(-c3ccccc3F)c(=O)c12` [Compound 1] was tested, and the EC50 was < 10 µM. In the case of `Cc1cccc2cc(Cn3nc(I)c4c(N)ncnc43)n(-c3ccccc3F)c(=O)c12` [Compound 2], the EC50 is reported as < 10 µM. With `Cc1cccc2cc(Cn3nc(-c4cc(O)cc(F)c4)c4c(N)ncnc43)n(-c3ccccc3F)c(=O)c12` [Compound 3] the EC50 was < 0.1 µM. For `Cc1cccc2cc(Cn3nc(C#CC4CC4)c4c(N)ncnc43)n(-c3ccccc3F)c(=O)c12` [Compound 4], the EC50 was < 1 µM. In the case of `Cc1ccccc1-n1c(Cn2cnc3c(N)ncnc32)cc2cccc(C)c2c1=O` [Compound 5], the EC50 is reported as < 10 µM. `Cc1cccc2cc(Cn3nc(C#CCO)c4c(N)ncnc43)n(-c3ccccc3F)c(=O)c12` [Compound 8] was tested, and the EC50 was < 1 µM. In the case of `Cc1cccc2cc(Cn3nc(-c4ccc(F)c(O)c4)c4c(N)ncnc43)n(-c3ccccc3F)c(=O)c12` [Compound 9], the EC50 is reported as < 1 µM. `Cc1cccc2cc(Cn3nc(-c4cccc(O)c4)c4c(N)ncnc43)n(-c3ccccc3F)c(=O)c12` [Compound 10] was tested, and the EC50 was < 1 µM. For `Cc1ccccc1-n1c(Cn2nc(C#CCO)c3c(N)ncnc32)cc2cccc(C)c2c1=O` [Compound 11], the EC50 was < 1 µM. For `Cc1ccccc1-n1c(Cn2nc(-c3ccc(F)c(O)c3)c3c(N)ncnc32)cc2cccc(C)c2c1=O` [Compound 12], the EC50 was < 0.1 µM. With `Cc1ccccc1-n1c(Cn2nc(C#CC3CC3)c3c(N)ncnc32)cc2cccc(C)c2c1=O` [Compound 14] the EC50 was < 1 µM. For `Cc1cccnc1-n1c(Cn2nc(I)c3c(N)ncnc32)cc2cccc(C)c2c1=O` [Compound 15], the EC50 was < 1 µM. In the case of `Cc1cccnc1-n1c(Cn2nc(-c3cc(O)cc(F)c3)c3c(N)ncnc32)cc2cccc(C)c2c1=O` [Compound 16], the EC50 is reported as < 0.1 µM. In the case of `Cc1cccnc1-n1c(Cn2nc(Br)c3c(N)ncnc32)cc2cccc(C)c2c1=O` [Compound 17], the EC50 is reported as < 0.1 µM. With `Cc1cccnc1-n1c(Cn2nc(Cl)c3c(N)ncnc32)cc2cccc(C)c2c1=O` [Compound 18] the EC50 was < 1 µM. `Cc1ccccc1-n1c(Cn2nc(Br)c3c(N)ncnc32)cc2cccc(C)c2c1=O` [Compound 19] was tested, and the EC50 was < 1 µM. `Cc1ccccc1-n1c(Cn2nc(Cl)c3c(N)ncnc32)cc2cccc(C)c2c1=O` [Compound 20] was tested, and the EC50 was < 1 µM. With `COc1cc(-c2nn(Cc3cc4cccc(C)c4c(=O)n3-c3ccccc3C)c3ncnc(N)c23)ccc1Cl` [Compound 21] the EC50 was < 1 µM. With `COc1cc(-c2nn(Cc3cc4cccc(C)c4c(=O)n3-c3ccccc3F)c3ncnc(N)c23)ccc1Cl` [Compound 22] the EC50 was < 10 µM. For `Cc1ccccc1-n1c(Cn2nc(-c3ccc(Cl)c(O)c3)c3c(N)ncnc32)cc2cccc(C)c2c1=O` [Compound 23], the EC50 was < 0.1 µM. With `Cc1cccc2cc(Cn3nc(-c4ccc(Cl)c(O)c4)c4c(N)ncnc43)n(-c3ccccc3F)c(=O)c12` [Compound 24] the EC50 was < 1 µM. `Cc1ccccc1-n1c(Cn2nc(-c3ccc(O)c(Cl)c3)c3c(N)ncnc32)cc2cccc(C)c2c1=O` [Compound 25] was tested, and the EC50 was < 1 µM. In the case of `Cc1cccc2cc(Cn3nc(-c4ccc(O)c(Cl)c4)c4c(N)ncnc43)n(-c3ccccc3F)c(=O)c12` [Compound 26], the EC50 is reported as < 10 µM. `Cc1ccccc1-n1c(Cn2nc(-c3ccc(F)cc3)c3c(N)ncnc32)cc2cccc(C)c2c1=O` [Compound 27] was tested, and the EC50 was < 10 µM. With `Cc1cccc2cc(Cn3nc(C#C[C@@H](C)O)c4c(N)ncnc43)n(-c3ccccc3F)c(=O)c12` [Compound 28] the EC50 was < 1 µM. With `Cc1cccc2cc(Cn3nc(-c4ccc(O)c(F)c4)c4c(N)ncnc43)n(-c3ccccc3F)c(=O)c12` [Compound 29] the EC50 was < 1 µM. In the case of `Cc1ccccc1-n1c(Cn2nc(-c3ccc(O)c(F)c3)c3c(N)ncnc32)cc2cccc(C)c2c1=O` [Compound 30], the EC50 is reported as < 1 µM. `Cc1ccccc1-n1c(Cn2nc(I)c3c(N)ncnc32)cc2ccccc2c1=O` [Compound 31] was tested, and the EC50 was < 1 µM. For `Cc1ccccc1-n1c(Cn2nc(C#C[C@@H](C)O)c3c(N)ncnc32)cc2ccccc2c1=O` [Compound 32], the EC50 was < 1 µM. For `Cc1cccc2cc(Cn3nc(Cl)c4c(N)ncnc43)n(-c3ccccc3F)c(=O)c12` [Compound 34], the EC50 was < 1 µM. `Cc1cccc2cc(Cn3nc(Br)c4c(N)ncnc43)n(-c3ccccc3F)c(=O)c12` [Compound 35] was tested, and the EC50 was < 1 µM. With `Cc1ccccc1-n1c(Cn2nc(-c3ccc(O)cc3)c3c(N)ncnc32)cc2cccc(C)c2c1=O` [Compound 36] the EC50 was < 1 µM. `Cc1ccccc1-n1c(Cn2nc(C#C[C@@H](C)O)c3c(N)ncnc32)cc2cccc(C)c2c1=O` [Compound 37] was tested, and the EC50 was < 0.1 µM. `Cc1cccc2cc(Cn3nc(-c4cccc(Cl)c4)c4c(N)ncnc43)n(-c3ccccc3F)c(=O)c12` [Compound 38] was tested, and the EC50 was > 10 µM. In the case of `Cc1ccccc1-n1c(Cn2nc(-c3cccc(Cl)c3)c3c(N)ncnc32)cc2cccc(C)c2c1=O` [Compound 39], the EC50 is reported as < 10 µM. With `Cc1cccc2cc(Cn3nc(-c4cccc(F)c4)c4c(N)ncnc43)n(-c3ccccc3F)c(=O)c12` [Compound 40] the EC50 was < 10 µM. `Cc1ccccc1-n1c(Cn2nc(-c3cccc(F)c3)c3c(N)ncnc32)cc2cccc(C)c2c1=O` [Compound 41] was tested, and the EC50 was < 1 µM. With `Cc1ccccc1-n1c(Cn2nc(I)c3c(N)ncnc32)cc2cccc(F)c2c1=O` [Compound 42] the EC50 was < 1 µM. In the case of `Cc1ccccc1-n1c(Cn2nc(C#C[C@@H](C)O)c3c(N)ncnc32)cc2cccc(F)c2c1=O` [Compound 43], the EC50 is reported as < 10 µM. In the case of `COc1ccc(-c2nn(Cc3cc4cccc(C)c4c(=O)n3-c3ccccc3C)c3ncnc(N)c23)cc1OC` [Compound 44], the EC50 is reported as < 0.1 µM. In the case of `COc1ccc(-c2nn(Cc3cc4cccc(C)c4c(=O)n3-c3ccccc3C)c3ncnc(N)c23)cc1` [Compound 45], the EC50 is reported as < 1 µM. With `Cc1cccc2cc(Cn3nc(-c4ccc(O)cc4)c4c(N)ncnc43)n(-c3ccccc3F)c(=O)c12` [Compound 46] the EC50 was < 1 µM. With `COc1ccc(-c2nn(Cc3cc4cccc(C)c4c(=O)n3-c3ccccc3F)c3ncnc(N)c23)cc1OC` [Compound 47] the EC50 was < 1 µM. `Cc1ccccc1-n1c(Cn2nc(-c3cnc4[nH]ccc4c3)c3c(N)ncnc32)cc2cccc(C)c2c1=O` [Compound 48] was tested, and the EC50 was < 0.1 µM. For `Cc1ccccc1-n1c(Cn2nc(-c3ccc(Cl)cc3)c3c(N)ncnc32)cc2cccc(C)c2c1=O` [Compound 49], the EC50 was < 10 µM. For `Cc1ccccc1-n1c(Cn2nc(-c3ccc4cc[nH]c4c3)c3c(N)ncnc32)cc2cccc(C)c2c1=O` [Compound 50], the EC50 was < 1 µM. With `Cc1ccccc1-n1c(Cn2nc(-c3cccc(O)c3)c3c(N)ncnc32)cc2ccccc2c1=O` [Compound 51] the EC50 was < 1 µM. In the case of `Cc1ccccc1-n1c(Cn2nc(-c3ccc(F)c(O)c3)c3c(N)ncnc32)cc2ccccc2c1=O` [Compound 54], the EC50 is reported as < 0.1 µM. `Cc1ccccc1-n1c(Cn2nc(-c3cc(O)cc(F)c3)c3c(N)ncnc32)cc2cccc(F)c2c1=O` [Compound 55] was tested, and the EC50 was < 0.1 µM. In the case of `Cc1cccc2cc(Cn3nc(I)c4c(N)ncnc43)n(C3CCCC3)c(=O)c12` [Compound 57], the EC50 is reported as < 10 µM. With `Cc1cccc2cc(Cn3nc(C#C[C@@H](C)O)c4c(N)ncnc43)n(C(C)C)c(=O)c12` [Compound 61] the EC50 was < 1 µM. With `Cc1cccc2cc(Cn3nc(-c4cccc(O)c4)c4c(N)ncnc43)n(C(C)C)c(=O)c12` [Compound 62] the EC50 was < 0.1 µM. For `Cc1cccc2cc(Cn3nc(-c4cc(O)cc(F)c4)c4c(N)ncnc43)n(C3CCCC3)c(=O)c12` [Compound 63], the EC50 was < 0.1 µM. In the case of `Cc1cccc2cc(Cn3nc(-c4cc(O)cc(F)c4)c4c(N)ncnc43)n(C(C)C)c(=O)c12` [Compound 66], the EC50 is reported as < 0.1 µM. For `Cc1cccc2cc(Cn3nc(-c4ccc(F)c(O)c4)c4c(N)ncnc43)n(C(C)C)c(=O)c12` [Compound 67], the EC50 was < 0.1 µM. For `Cc1cccnc1-n1c(Cn2nc(-c3ccc(F)c(O)c3)c3c(N)ncnc32)cc2cccc(C)c2c1=O` [Compound 68], the EC50 was < 0.1 µM. In the case of `Cc1cccnc1-n1c(Cn2nc(C#C[C@@H](C)O)c3c(N)ncnc32)cc2cccc(C)c2c1=O` [Compound 69], the EC50 is reported as < 1 µM. In the case of `COc1ccccc1-n1c(Cn2nc(I)c3c(N)ncnc32)cc2cccc(C)c2c1=O` [Compound 70], the EC50 is reported as < 1 µM. For `Cc1cccc2cc(Cn3nc(-c4ccc(Cl)c(O)c4)c4c(N)ncnc43)n(C3CCCC3)c(=O)c12` [Compound 71], the EC50 was < 10 µM. In the case of `Cc1cccnc1-n1c(Cn2nc(-c3ccc(Cl)c(O)c3)c3c(N)ncnc32)cc2cccc(C)c2c1=O` [Compound 72], the EC50 is reported as < 0.1 µM. In the case of `Cc1cccnc1-n1c(Cn2nc(-c3cccc(O)c3)c3c(N)ncnc32)cc2cccc(C)c2c1=O` [Compound 73], the EC50 is reported as < 0.1 µM. In the case of `COc1ccccc1-n1c(Cn2nc(-c3cccc(O)c3)c3c(N)ncnc32)cc2cccc(C)c2c1=O` [Compound 74], the EC50 is reported as < 0.1 µM. For `Cc1cccc2cc(Cn3nc(I)c4c(N)ncnc43)n(-c3ccccc3C(C)C)c(=O)c12` [Compound 75], the EC50 was < 0.1 µM. `Cc1cccc2cc(Cn3nc(I)c4c(N)ncnc43)n(-c3ccccc3Cl)c(=O)c12` [Compound 76] was tested, and the EC50 was < 1 µM. For `CCc1ccccc1-n1c(Cn2nc(I)c3c(N)ncnc32)cc2cccc(C)c2c1=O` [Compound 77], the EC50 was < 1 µM. In the case of `Cc1ccncc1-n1c(Cn2nc(I)c3c(N)ncnc32)cc2cccc(C)c2c1=O` [Compound 78], the EC50 is reported as < 1 µM. In the case of `Cc1cccc2cc(Cn3nc(I)c4c(N)ncnc43)n(-c3ccccc3O)c(=O)c12` [Compound 79], the EC50 is reported as < 1 µM. In the case of `COc1ccccc1-n1c(Cn2nc(C#C[C@@H](C)O)c3c(N)ncnc32)cc2cccc(C)c2c1=O` [Compound 80], the EC50 is reported as < 1 µM. `Cc1cccc2cc(Cn3nc(-c4cccc(O)c4)c4c(N)ncnc43)n(-c3ccccc3O)c(=O)c12` [Compound 81] was tested, and the EC50 was < 0.1 µM. For `Cc1cccc2cc(Cn3nc(-c4cccc(O)c4)c4c(N)ncnc43)n(-c3ccccc3C(C)C)c(=O)c12` [Compound 82], the EC50 was < 0.1 µM. In the case of `Cc1cccc2cc(Cn3nc(C#C[C@@H](C)O)c4c(N)ncnc43)n(-c3ccccc3C(C)C)c(=O)c12` [Compound 83], the EC50 is reported as < 0.1 µM. For `COc1ccccc1-n1c(Cn2nc(-c3cc(O)cc(F)c3)c3c(N)ncnc32)cc2cccc(C)c2c1=O` [Compound 84], the EC50 was < 0.1 µM. For `Cc1ccccc1-n1c(Cn2nc(C#C[C@H](C)O)c3c(N)ncnc32)cc2cccc(C)c2c1=O` [Compound 85], the EC50 was < 1 µM. For `Cc1cccc2cc(Cn3nc(I)c4c(N)ncnc43)n(C3CC3)c(=O)c12` [Compound 86], the EC50 was < 1 µM. For `Cc1cccc2cc(Cn3nc(I)c4c(N)ncnc43)n(C3CCCCC3)c(=O)c12` [Compound 87], the EC50 was < 10 µM.
